In US9102701B2, “17-hydroxy-17-pentafluoroethyl-estra-4,9(10)-diene-11-ethynylphenyl derivatives, methods for the production thereof and use thereof for treating diseases” (Bayer Intellectual Property GmbH, priority 2009, dated 2015):

How the values were obtained:
[1] = target: T1, human progesterone receptor B (Homo sapiens, UniProt P06401); experiment: Progesterone receptor-antagonistic action in stably transfected SK-N-MC cells, PR-B, MMTV-LUC reporter; type: cell-based; conditions: read-out: IC50 PR-B
T1 construct: expressed in transfected cells; host or cells: SK-N-MC human neuroblastoma cells, stably transfected with pRChPR-B-neo and pMMTV-LUC
T1 sequence (P06401 1-933): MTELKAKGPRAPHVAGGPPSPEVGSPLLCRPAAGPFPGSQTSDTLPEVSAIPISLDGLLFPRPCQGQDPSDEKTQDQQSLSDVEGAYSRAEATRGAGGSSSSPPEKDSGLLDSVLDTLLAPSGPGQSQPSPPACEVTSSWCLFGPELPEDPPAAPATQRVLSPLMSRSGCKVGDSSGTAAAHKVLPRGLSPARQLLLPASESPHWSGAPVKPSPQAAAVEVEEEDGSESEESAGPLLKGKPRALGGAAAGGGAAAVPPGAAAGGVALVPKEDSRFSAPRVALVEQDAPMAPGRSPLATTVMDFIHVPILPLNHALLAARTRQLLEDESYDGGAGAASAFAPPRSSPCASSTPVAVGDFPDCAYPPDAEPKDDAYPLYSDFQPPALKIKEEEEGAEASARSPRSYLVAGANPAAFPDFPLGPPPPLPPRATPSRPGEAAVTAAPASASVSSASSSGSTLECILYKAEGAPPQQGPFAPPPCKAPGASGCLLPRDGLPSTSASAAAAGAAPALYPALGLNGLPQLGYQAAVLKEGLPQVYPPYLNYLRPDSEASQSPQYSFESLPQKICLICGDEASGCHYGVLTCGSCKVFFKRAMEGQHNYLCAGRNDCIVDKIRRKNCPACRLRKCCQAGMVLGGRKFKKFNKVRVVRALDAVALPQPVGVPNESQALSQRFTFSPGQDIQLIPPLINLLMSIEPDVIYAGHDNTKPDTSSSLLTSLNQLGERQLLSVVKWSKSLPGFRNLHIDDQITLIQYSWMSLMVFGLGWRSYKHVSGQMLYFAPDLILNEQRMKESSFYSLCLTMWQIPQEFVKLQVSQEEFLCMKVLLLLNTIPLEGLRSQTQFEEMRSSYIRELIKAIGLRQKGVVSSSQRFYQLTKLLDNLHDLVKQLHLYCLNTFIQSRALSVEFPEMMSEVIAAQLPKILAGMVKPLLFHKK
Protocol: (§1) Determination of Progesterone Receptor-Antagonistic Action in Stable Transfectants of Human Neuroblastoma Cells (SK-N-MC Cells) with the Human Progesterone a or Progesterone B Receptor and an MN-LUC Reporter Construct
(§2) SK-N-MC cells (human neuroblastoma cells) which have been stably transfected with plasmids expressing the human progesterone receptor B (pRChPR-B-neo) or the human progesterone receptor A (pRChPR-A-neo) and a reporter construct (pMMTV-LUC) were incubated for 24 hours either in the absence (negative control) or in the presence of ascending amounts of the particular test compound (0.01 nmol/l, 0.1 nmol/l, 1 nmol/l, 10 nmol/l, 100 nmol/l and […]), in order to determine the agonistic efficacy. As a positive control of the reporter gene induction, the cells were treated with the synthetic gestagen promegestone (0.01 nmol/l, 0.1 nmol/l, 1 nmol/l, 10 nmol/l, 100 nmol/l and […]). To determine the antagonistic activity, the cells were treated with 0.1 nmol/l promegestone and additionally with ascending amounts of the particular test compound (0.01 nmol/l, 0.1 nmol/l, 1 nmol/l, 10 nmol/l, 100 nmol/l and […]). The activity of the reporter gene LUC (LUC=luciferase) was determined in the cell lysates and measured as RLU (relative light units). All measurements are reported as % efficacy and as EC50 and IC50 concentrations.

[2] = target: T2, human progesterone receptor A (Homo sapiens, UniProt P06401); experiment: Progesterone receptor-antagonistic action in stably transfected SK-N-MC cells, PR-A, MMTV-LUC reporter; type: cell-based; conditions: read-out: IC50 PR-A
T2 construct: expressed in transfected cells; host or cells: SK-N-MC human neuroblastoma cells, stably transfected with pRChPR-A-neo and pMMTV-LUC
T2 sequence (P06401 1-769 isoform P06401-2): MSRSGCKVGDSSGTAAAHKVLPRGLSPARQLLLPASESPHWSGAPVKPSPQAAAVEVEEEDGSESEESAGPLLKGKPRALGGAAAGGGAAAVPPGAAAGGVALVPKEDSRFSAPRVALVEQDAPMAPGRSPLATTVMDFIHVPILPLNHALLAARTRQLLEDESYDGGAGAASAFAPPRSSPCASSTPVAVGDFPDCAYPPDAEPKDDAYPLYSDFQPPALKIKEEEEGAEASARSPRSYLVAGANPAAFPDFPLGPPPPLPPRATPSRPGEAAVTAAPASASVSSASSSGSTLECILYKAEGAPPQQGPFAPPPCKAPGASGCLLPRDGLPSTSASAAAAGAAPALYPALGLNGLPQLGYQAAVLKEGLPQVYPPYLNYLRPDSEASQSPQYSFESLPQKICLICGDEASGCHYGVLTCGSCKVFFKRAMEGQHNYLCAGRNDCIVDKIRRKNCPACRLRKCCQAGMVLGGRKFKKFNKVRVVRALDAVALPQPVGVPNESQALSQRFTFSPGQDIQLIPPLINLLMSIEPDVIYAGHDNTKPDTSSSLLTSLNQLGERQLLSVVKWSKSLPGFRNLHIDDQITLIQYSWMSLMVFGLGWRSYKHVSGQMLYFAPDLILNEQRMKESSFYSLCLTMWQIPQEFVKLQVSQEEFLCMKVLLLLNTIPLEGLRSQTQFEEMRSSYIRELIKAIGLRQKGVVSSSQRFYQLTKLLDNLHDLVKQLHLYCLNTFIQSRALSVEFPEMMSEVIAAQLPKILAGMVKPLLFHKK
Protocol: as §1, §2

Structure (SMILES) | IC50 [1] | IC50 [2]
Cc1ccc(NC(=O)NCC#Cc2ccc([C@H]3C[C@@]4(C)[C@@H](CC[C@@]4(O)C(F)(F)C(F)(F)F)[C@@H]4CCC5=CC(=O)CCC5=C43)cc2)cc1 [Example 38, 1-{3-[4-((8S,11R,13S,14S,17S)-17-hydroxy-13-methyl-3-oxo-17-pentafluoroethyl-2,3,6,7,8,11,12,13,14,15,16,17-dodecahydro-1H-cyclopenta[a]phenanthren-11-yl)phenyl]prop-2-ynyl}-3-(4-methylphenyl)urea] | 0.3 nM | 0.2 nM
C[C@]12C[C@H](c3ccc(C#CCNC(=O)NCc4ccccc4)cc3)C3=C4CCC(=O)C=C4CCC3C1CC[C@@]2(O)C(F)(F)C(F)(F)F (stereo partly drawn) [Example 39, 1-benzyl-3-{3-[4-((8S,11R,13S,14S,17S)-17-hydroxy-13-methyl-3-oxo-17-pentafluoroethyl-2,3,6,7,8,11,12,13,14,15,16,17-dodecahydro-1H-cyclopenta[a]phenanthren-1′-yl)phenyl]prop-2-ynyl}urea] | 0.1 nM | 0.1 nM
CC(C)(C)NC(=O)NCC#Cc1ccc([C@H]2C[C@@]3(C)[C@@H](CC[C@@]3(O)C(F)(F)C(F)(F)F)[C@@H]3CCC4=CC(=O)CCC4=C32)cc1 [Example 40, 1-{3-[4-((8S,11R,13S,14S,17S)-17-hydroxy-13-methyl-3-oxo-17-pentafluoroethyl-2,3,6,7,8,11,12,13,14,15,16,17-dodecahydro-1H-cyclopenta[a]phenanthren-11-yl)phenyl]prop-2-ynyl}-3-tert-butylurea] | 0.3 nM | 0.1 nM
C=CCNC(=O)NCC#Cc1ccc([C@H]2C[C@@]3(C)[C@@H](CC[C@@]3(O)C(F)(F)C(F)(F)F)[C@@H]3CCC4=CC(=O)CCC4=C32)cc1 [Example 41, 1-allyl-3-{3-[4-((8S,11R,13S,14S,17S)-17-hydroxy-13-methyl-3-oxo-17-pentafluoroethyl-2,3,6,7,8,11,12,13,14,15,16,17-dodecahydro-1H-cyclopenta[a]phenanthren-1′-yl)phenyl]prop-2-ynyl}urea] | 0.1 nM | 0.1 nM
CCOC(=O)CNC(=O)NCC#Cc1ccc([C@H]2C[C@@]3(C)C(CC[C@@]3(O)C(F)(F)C(F)(F)F)C3CCC4=CC(=O)CCC4=C32)cc1 (stereo partly drawn) [Example 42, (3-{3-[4-((8S,11R,13S,14S,17S)-17-hydroxy-13-methyl-3-oxo-17-pentafluoroethyl-2,3,6,7,8,11,12,13,14,15,16,17-dodecahydro-1H-cyclopenta[a]phenanthren-1′-yl)phenyl]prop-2-ynyl}ureido)acetic acid ethyl ester] | 0.8 nM | 0.7 nM
C[C@]12C[C@H](c3ccc(C#CCNC(=O)Nc4ccc(N5CCCCC5)cc4)cc3)C3=C4CCC(=O)C=C4CC[C@H]3[C@@H]1CC[C@@]2(O)C(F)(F)C(F)(F)F [Example 43, 1-{3-[4-((8S,11R,13S,14S,17S)-17-hydroxy-13-methyl-3-oxo-17-pentafluoroethyl-2,3,6,7,8,11,12,13,14,15,16,17-dodecahydro-1H-cyclopenta[a]phenanthren-11-yl)phenyl]prop-2-ynyl}-3-(4-piperidin-1-ylphenyl)urea] | 0.9 nM | 0.8 nM
C=CCNC(=O)OCC#Cc1ccc([C@H]2C[C@@]3(C)C(CC[C@@]3(O)C(F)(F)C(F)(F)F)C3CCC4=CC(=O)CCC4=C32)cc1 (stereo partly drawn) [Example 44, allylcarbamic acid 3-[4-((8S,11R,13S,14S,17S)-17-hydroxy-13-methyl-3-oxo-17-pentafluoroethyl-2,3,6,7,8,11,12,13,14,15,16,17-dodecahydro-1H-cyclopenta[a]phenanthren-1′-yl)phenyl]prop-2-ynyl ester] | 0.01 nM | 0.01 nM
CCNC(=O)OCC#Cc1ccc([C@H]2C[C@@]3(C)C(CC[C@@]3(O)C(F)(F)C(F)(F)F)C3CCC4=CC(=O)CCC4=C32)cc1 (stereo partly drawn) [Example 45, ethylcarbamic acid 3-[4-((8S,11R,13S,14S,17S)-17-hydroxy-13-methyl-3-oxo-17-pentafluoroethyl-2,3,6,7,8,11,12,13,14,15,16,17-dodecahydro-1H-cyclopenta[a]phenanthren-1′-yl)phenyl]prop-2-ynyl ester] | 0.01 nM | 0.01 nM

Other lines, results leading:

IC50 [1] | IC50 [2] | Structure (SMILES)
0.01 nM | 0.01 nM | C[C@]12C[C@H](c3ccc(C#CCOC(=O)Nc4ccccc4)cc3)C3=C4CCC(=O)C=C4CCC3C1CC[C@@]2(O)C(F)(F)C(F)(F)F (stereo partly drawn) [Example 46, phenylcarbamic acid 3-[4-((8S,11R,13S,14S,17S)-17-hydroxy-13-methyl-3-oxo-17-pentafluoroethyl-2,3,6,7,8,11,12,13,14,15,16,17-dodecahydro-1H-cyclopenta[a]phenanthren-1′-yl)phenyl]prop-2-ynyl ester]
0.01 nM | 0.01 nM | Cc1ccc(NC(=O)OCC#Cc2ccc([C@H]3C[C@@]4(C)C(CC[C@@]4(O)C(F)(F)C(F)(F)F)C4CCC5=CC(=O)CCC5=C43)cc2)cc1 (stereo partly drawn) [Example 47, 4-methylphenylcarbamic acid 3-[4-((8S,11R,13S,14S,17S)-17-hydroxy-13-methyl-3-oxo-17-pentafluoroethyl-2,3,6,7,8,11,12,13,14,15,16,17-dodecahydro-1H-cyclopenta[a]phenanthren-1′-yl)phenyl]prop-2-ynyl ester]
0.08 nM | 0.09 nM | C[C@]12C[C@H](c3ccc(C#CCOC(=O)Nc4ccc(F)cc4)cc3)C3=C4CCC(=O)C=C4CCC3C1CC[C@@]2(O)C(F)(F)C(F)(F)F (stereo partly drawn) [Example 48, 4-fluorophenylcarbamic acid 3-[4-((8S,11R,13S,14S,17S)-17-hydroxy-13-methyl-3-oxo-17-pentafluoroethyl-2,3,6,7,8,11,12,13,14,15,16,17-dodecahydro-1H-cyclopenta[a]phenanthren-1′-yl)phenyl]prop-2-ynyl ester]
0.07 nM | 0.01 nM | CC(C)NC(=O)OCC#Cc1ccc([C@H]2C[C@@]3(C)C(CC[C@@]3(O)C(F)(F)C(F)(F)F)C3CCC4=CC(=O)CCC4=C32)cc1 (stereo partly drawn) [Example 49, isopropylcarbamic acid 3-[4-((8S,11R,13S,14S,17S)-17-hydroxy-13-methyl-3-oxo-17-pentafluoroethyl-2,3,6,7,8,11,12,13,14,15,16,17-dodecahydro-1H-cyclopenta[a]phenanthren-1′-yl)phenyl]prop-2-ynyl ester]
